# Experimental data taken from the supplement of paper PMC11451515.
# Test system: SEM cells
# Assay: cell viability relative to DMSO control; higher = less cytotoxic
# Details: 48 h
# In short: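 Library compounds in DMSO were pin-dosed into 1536-well plates (5 μl) holding NOMO1 or SEM (500 cells/well) or P12-Ichikawa (1000 cells/well) leukemia cells, across an 11-point threefold series of 47 μM to 0.79 nM. Each cell line had been adapted for at least four passages in each medium. CellTiter-Glo One luminescence was read after 48 h at 37°C. Viability is the per-plate percentage relative to DMSO wells, with cell-free wells as background.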
# [1] = HPLM + 10% dialyzed FBS, 0.000781 µM
# [2] = HPLM + 10% dialyzed FBS, 0.00234 µM
# [3] = HPLM + 10% dialyzed FBS, 0.00702 µM
# [4] = HPLM + 10% dialyzed FBS, 0.0211 µM
# [5] = HPLM + 10% dialyzed FBS, 0.0632 µM
# [6] = HPLM + 10% dialyzed FBS, 0.19 µM
# [7] = HPLM + 10% dialyzed FBS, 0.569 µM
# [8] = HPLM + 10% dialyzed FBS, 1.71 µM
# [9] = HPLM + 10% dialyzed FBS, 5.12 µM
# [10] = HPLM + 10% dialyzed FBS, 15.4 µM
# [11] = HPLM + 10% dialyzed FBS, 46.1 µM
# [12] = RPMI 5 mM glucose + 10% FBS, 0.000781 µM
# [13] = RPMI 5 mM glucose + 10% FBS, 0.00234 µM
# [14] = RPMI 5 mM glucose + 10% FBS, 0.00702 µM
# [15] = RPMI 5 mM glucose + 10% FBS, 0.0211 µM
# [16] = RPMI 5 mM glucose + 10% FBS, 0.0632 µM
# [17] = RPMI 5 mM glucose + 10% FBS, 0.19 µM
# [18] = RPMI 5 mM glucose + 10% FBS, 0.569 µM
# [19] = RPMI 5 mM glucose + 10% FBS, 1.71 µM
# [20] = RPMI 5 mM glucose + 10% FBS, 5.12 µM
# [21] = RPMI 5 mM glucose + 10% FBS, 15.4 µM
# [22] = RPMI 5 mM glucose + 10% FBS, 46.1 µM
# [23] = RPMI 5 mM glucose + 10% dialyzed FBS, 0.000781 µM
# [24] = RPMI 5 mM glucose + 10% dialyzed FBS, 0.00234 µM
# [25] = RPMI 5 mM glucose + 10% dialyzed FBS, 0.00702 µM
# [26] = RPMI 5 mM glucose + 10% dialyzed FBS, 0.0211 µM
# [27] = RPMI 5 mM glucose + 10% dialyzed FBS, 0.0632 µM
# [28] = RPMI 5 mM glucose + 10% dialyzed FBS, 0.19 µM
# [29] = RPMI 5 mM glucose + 10% dialyzed FBS, 0.569 µM
# [30] = RPMI 5 mM glucose + 10% dialyzed FBS, 1.71 µM
# [31] = RPMI 5 mM glucose + 10% dialyzed FBS, 5.12 µM
# [32] = RPMI 5 mM glucose + 10% dialyzed FBS, 15.4 µM
# [33] = RPMI 5 mM glucose + 10% dialyzed FBS, 46.1 µM
Structure (SMILES),cell viability [1] [%],cell viability [2] [%],cell viability [3] [%],cell viability [4] [%],cell viability [5] [%],cell viability [6] [%],cell viability [7] [%],cell viability [8] [%],cell viability [9] [%],cell viability [10] [%],cell viability [11] [%],cell viability [12] [%],cell viability [13] [%],cell viability [14] [%],cell viability [15] [%],cell viability [16] [%],cell viability [17] [%],cell viability [18] [%],cell viability [19] [%],cell viability [20] [%],cell viability [21] [%],cell viability [22] [%],cell viability [23] [%],cell viability [24] [%],cell viability [25] [%],cell viability [26] [%],cell viability [27] [%],cell viability [28] [%],cell viability [29] [%],cell viability [30] [%],cell viability [31] [%],cell viability [32] [%],cell viability [33] [%]
CNCc1ccc(-c2[nH]c3cc(F)cc4c3c2CCNC4=O)cc1,101,103,126,148,122,118,117,133,155,141,109,106,118,128,123,134,127,143,152,163,153,128,94.5,110,115,115,95.7,130,126,136,115,120,106
CC[C@H](C)C(=O)O[C@H]1C[C@H](O)\C=C2\C=C/[C@H](C)[C@H](CC[C@@H](O)C[C@@H](O)CC(O)=O)[C@@H]12,118,114,116,111,125,129,121,126,103,106,92.9,98.7,110,121,124,113,126,107,118,95.8,108,102,123,109,121,125,129,109,121,110,119,120,86.2
COC(=O)C1C2CC3c4[nH]c5cc(OC)ccc5c4CCN3CC2CC(OC(=O)c2cc(OC)c(OC)c(OC)c2)C1OC (centres undefined),116,120,119,125,130,119,141,115,116,117,105,97.2,120,102,107,113,102,104,112,94.8,85.2,91.4,116,110,113,105,104,134,124,135,128,82.1,86.6
CN[C@@H]1Cc2cccc3[nH]c(=O)n(c23)C1,108,119,105,121,98.8,100,110,103,104,92.8,95.4,,,,,,,,,,,,,,,,,,,,,,
CN[C@@H](C)C(=O)N[C@H]1CN(C(=O)CC(C)C)CC[C@H]2CC[C@@H](C(=O)NC(c3ccccc3)c3ccccc3)N2C1=O,76.3,90.5,98.3,100,98.1,93.7,99,103,99.9,71.4,41,107,103,105,110,104,102,96.7,83.5,74.2,56.5,38.5,95.5,86.1,92.8,104,106,97.9,102,95.1,77.7,61,36.2
CC(O)(C#Cc1ccc2c(c1)N(c1nc(N)ncc1Cl)CC2)c1nccs1 (centres undefined),97.3,110,113,100,125,107,109,120,111,111,72.4,88.2,87.3,107,62.8,92.9,97.7,102,101,102,84.5,43.5,117,120,119,82.5,107,103,117,123,114,109,59.2
O=C(O)/C=C/c1ccc(O)c(O)c1,90.4,102,93.6,122,106,93.6,98.5,105,112,78,20.2,108,96.8,90.3,114,110,90.6,109,106,98.5,39.1,5.15,99.2,117,111,112,103,114,104,91.7,105,50,5.58
